Data from PubChem BioAssay (NCI).
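The compound was tested at five concentrations on cells cultured in 96-well plates, with a 48-hour exposure period. GI50 is the concentration that inhibits growth by half. TGI marks complete inhibition of growth.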

Tests used:
Assay in all cases: DTP human tumour cell line panel, 48 h
786-0 renal = tested on: 786-0 renal
A498 renal = tested on: A498 renal
A549 NSCLC = tested on: A549 NSCLC
ACHN renal = tested on: ACHN renal
BT-549 breast = tested on: BT-549 breast
CAKI-1 renal = tested on: CAKI-1 renal
CCRF-CEM leukemia = tested on: CCRF-CEM leukemia
COLO 205 colon = tested on: COLO 205 colon
DU-145 prostate = tested on: DU-145 prostate
EKVX NSCLC = tested on: EKVX NSCLC
HCC-2998 colon = tested on: HCC-2998 colon
HCT-116 colon = tested on: HCT-116 colon
HCT-15 colon = tested on: HCT-15 colon
HL-60(TB) leukemia = tested on: HL-60(TB) leukemia
HOP-62 NSCLC = tested on: HOP-62 NSCLC
HOP-92 NSCLC = tested on: HOP-92 NSCLC
HS 578T breast = tested on: HS 578T breast
HT29 colon = tested on: HT29 colon
IGROV1 ovarian = tested on: IGROV1 ovarian
K-562 leukemia = tested on: K-562 leukemia
KM12 colon = tested on: KM12 colon
LOX IMVI melanoma = tested on: LOX IMVI melanoma
M14 melanoma = tested on: M14 melanoma
MALME-3M melanoma = tested on: MALME-3M melanoma
MCF7 breast = tested on: MCF7 breast
MDA-MB-231 breast = tested on: MDA-MB-231 breast
MDA-MB-435 = tested on: MDA-MB-435
MOLT-4 leukemia = tested on: MOLT-4 leukemia
NCI-H226 lung = tested on: NCI-H226 lung

CCN(CC)c1ccc(/C=C2/NC(=O)NC2=O)cc1
GI50 (786-0 renal): 10.9 µM | TGI (786-0 renal): > 100 µM | GI50 (A498 renal): 7.44 µM | TGI (A498 renal): > 89.3 µM | GI50 (A549 NSCLC): 9.9 µM | TGI (A549 NSCLC): > 100 µM | GI50 (ACHN renal): 26.5 µM | TGI (ACHN renal): > 100 µM | GI50 (BT-549 breast): 7.49 µM | TGI (BT-549 breast): > 100 µM | GI50 (CAKI-1 renal): 6.19 µM | TGI (CAKI-1 renal): > 100 µM | GI50 (CCRF-CEM leukemia): 9.66 µM | TGI (CCRF-CEM leukemia): > 100 µM | GI50 (COLO 205 colon): 4.63 µM | TGI (COLO 205 colon): 23.6 µM | GI50 (DU-145 prostate): 5.7 µM | TGI (DU-145 prostate): 32.6 µM | GI50 (EKVX NSCLC): 0.753 µM | TGI (EKVX NSCLC): > 100 µM | GI50 (HCC-2998 colon): 16.2 µM | TGI (HCC-2998 colon): > 100 µM | GI50 (HCT-116 colon): 3.65 µM | TGI (HCT-116 colon): > 100 µM | GI50 (HCT-15 colon): 3.21 µM | TGI (HCT-15 colon): > 100 µM | GI50 (HL-60(TB) leukemia): 4.9 µM | TGI (HL-60(TB) leukemia): > 100 µM | GI50 (HOP-62 NSCLC): 10 µM | TGI (HOP-62 NSCLC): > 100 µM | GI50 (HOP-92 NSCLC): 9.01 µM | TGI (HOP-92 NSCLC): > 93.1 µM | GI50 (HS 578T breast): 1.23 µM | TGI (HS 578T breast): > 28 µM | GI50 (HT29 colon): 2.83 µM | TGI (HT29 colon): > 100 µM | GI50 (IGROV1 ovarian): 4.82 µM | TGI (IGROV1 ovarian): > 27.6 µM | GI50 (K-562 leukemia): 0.671 µM | TGI (K-562 leukemia): > 100 µM | GI50 (KM12 colon): 1.65 µM | TGI (KM12 colon): > 24.2 µM | GI50 (LOX IMVI melanoma): 9.73 µM | TGI (LOX IMVI melanoma): > 100 µM | GI50 (M14 melanoma): 3.3 µM | TGI (M14 melanoma): 38.9 µM | GI50 (MALME-3M melanoma): 16 µM | TGI (MALME-3M melanoma): > 100 µM | GI50 (MCF7 breast): 2.84 µM | TGI (MCF7 breast): > 100 µM | GI50 (MDA-MB-231 breast): 28.7 µM | TGI (MDA-MB-231 breast): > 100 µM | GI50 (MDA-MB-435): 0.42 µM | TGI (MDA-MB-435): 3.53 µM | GI50 (MOLT-4 leukemia): 17.6 µM | TGI (MOLT-4 leukemia): > 100 µM | GI50 (NCI-H226 lung): > 95.2 µM
